Measurements: the NIST ThermoML archive (doi:10.1016/j.fluid.2011.01.012)
± gives the expanded uncertainty stated by the source.

Experiments:
[1] = Liquid; for mass density: 293.15 K, 101.33 kPa, Vibrating tube method; for Normal boiling temperature: Fischer Boiling Piont Apparatus
[2] = refractive index (Na D-line) (dimensionless); settings: 293.15 K; 101.33 kPa; Liquid; Standard Abbe refractometry

| mass density [1] [kg/m3] | Normal boiling temperature [1] [°C] | refractive index [2] | Structure (SMILES) |
| --- | --- | --- | --- |
| 1040.22 ± 0.36 | 217.7 ± 1 | 1.42014 ± 0.00039 | CCOC(=O)CCC(=O)OCC [diethyl butanedioate] |
| 1022.04 ± 0.92 | 236.5 ± 1 | 1.42414 ± 0.00052 | CCOC(=O)CCCC(=O)OCC [diethyl glutarate] |
| 1007.63 ± 0.34 | 245.1 ± 1 | 1.42725 ± 0.00039 | CCOC(=O)CCCCC(=O)OCC [diethyl hexanedioate] |
| 999.9 ± 0.24 | 100.1 ± 1 | 1.3324 ± 0.00033 | O [water] |
